Laboratory results taken from ChEMBL document CHEMBL5543109, “Novel β-Hairpin Antimicrobial Peptide Containing the β-Turn Sequence of -NG- and the Tryptophan Zippers Facilitate Self-Assembly into Nanofibers, Exhibiting Excellent Antimicrobial Performance” (J Med Chem, 2024).
Values after ≈ are worked out from the molar mass of the structure shown. Active and inactive are the calls of the source. No cut-off for these calls is given here.

Columns and labels:
[1] = system: Erythrocyte; assay: Hemolytic activity in mouse erythrocytes assessed as concentration required to cause 10% hemolysis incubated for 1 hr; format: toxicity, cell-based
[2] = Acute toxicity in ip dosed mouse by karber method; format: organism-based; conditions: in vivo, ip
[3] = Acute toxicity in mouse assessed as mortality rate at 21 mg/kg, ip by karber method; format: organism-based; conditions: in vivo
[4] = Acute toxicity in mouse assessed as mortality rate at 25 mg/kg, ip by karber method; format: organism-based; conditions: in vivo
[5] = Acute toxicity in mouse assessed as mortality rate at 30 mg/kg, ip by karber method; format: organism-based; conditions: in vivo
[6] = Acute toxicity in mouse assessed as alveolar cavity wrinkling at 25.8 mg/kg, ip by H and E staining based assay; format: organism-based; conditions: in vivo
[7] = Acute toxicity in mouse assessed as inflammatory cell infiltration at 25.8 mg/kg, ip by H and E staining based assay; format: organism-based; conditions: in vivo
[8] = Acute toxicity in mouse assessed as lung cell necrosis at 25.8 mg/kg, ip by H and E staining based assay; format: organism-based; conditions: in vivo
[9] = Acute toxicity in mouse assessed as hepatocyte necrosis at 25.8 mg/kg, ip by H and E staining based assay; format: organism-based; conditions: hepatocytes
[10] = Acute toxicity in mouse assessed as cellular atrophy at 25.8 mg/kg, ip by H and E staining based assay; format: organism-based; conditions: in vivo
[11] = Acute toxicity in mouse assessed as renal cell necrosis at 25.8 mg/kg, ip by H and E staining based assay; format: organism-based; conditions: in vivo
[12] = Acute toxicity in mouse assessed as tissue hemorrhage at 25.8 mg/kg, ip by H and E staining based assay; format: organism-based; conditions: in vivo
[13] = system: Staphylococcus aureus; assay: Antibacterial activity against Staphylococcus aureus ATCC 25923 infected in BALB/c mouse skin wound infection model assessed as reduction in wound bacterial load at 1 mg/ml, ip administered at 1 hr interval for total 6 treatment and measured after 1 hr post last dose; format: functional, organism-based; conditions: time 7.0 hrs
[14] = system: Staphylococcus aureus; assay: Antibacterial activity against Staphylococcus aureus 794 infected in BALB/c mouse skin wound infection model assessed as reduction in TNFalpha level at 1 mg/ml, ip pre-infected with bacteria for 24 hrs followed by compound addition and measured after 13 days post infection; format: functional, organism-based; conditions: time 12.0 day
[15] = system: Staphylococcus aureus; assay: Antibacterial activity against Staphylococcus aureus 794 infected in BALB/c mouse skin wound infection model assessed as wound healing at 1 mg/ml, ip pre-infected with bacteria for 24 hrs followed by compound addition and measured after 13 days post infection; format: functional, organism-based; conditions: time 12.0 day
[16] = system: Staphylococcus aureus; assay: Antibacterial activity against Staphylococcus aureus 794 infected in BALB/c mouse skin wound infection model assessed as wound healing by measuring thickened scab at 1 mg/ml, ip pre-infected with bacteria for 24 hrs followed by compound addition and measured on day 9; format: functional, organism-based; conditions: time 9.0 day
[17] = system: Staphylococcus aureus; assay: Antibacterial activity against Staphylococcus aureus 794 infected in BALB/c mouse skin wound infection model assessed as wound healing at 1 mg/ml, ip pre-infected with bacteria for 24 hrs followed by compound addition and measured on day 11; format: functional; conditions: time 11.0 day
[18] = Toxicity in BALB/c mouse infected with Staphylococcus aureus 794 assessed as hyperkeratosis at 1 mg/ml, ip pre-infected with bacteria for 24 hrs followed by compound addition and measured after 13 days by H and E staining based histopathological analysis; format: organism-based; conditions: in vivo, 312 h, time 13 day
[19] = Toxicity in BALB/c mouse infected with Staphylococcus aureus 794 assessed as cell necrosis at 1 mg/ml, ip pre-infected with bacteria for 24 hrs followed by compound addition and measured after 13 days by H and E staining based histopathological analysis; format: organism-based; conditions: in vivo, 312 h, time 13 day
[20] = Toxicity in BALB/c mouse infected with Staphylococcus aureus 794 assessed as inflammatory cell infiltration at 1 mg/ml, ip pre-infected with bacteria for 24 hrs followed by compound addition and measured after 13 days by H and E staining based histopathological analysis; format: organism-based; conditions: in vivo, 312 h, time 13 day
[21] = system: Staphylococcus aureus; assay: Antibacterial activity against methicillin resistant Staphylococcus aureus incubated for 18 hrs by broth microdilution method; format: functional
[22] = system: Staphylococcus aureus; assay: Antibacterial activity against methicillin resistant Staphylococcus aureus 113 incubated for 18 hrs by broth microdilution method; format: functional
[23] = system: Staphylococcus aureus; assay: Antibacterial activity against Staphylococcus aureus S794 incubated for 18 hrs by broth microdilution method; format: functional
[24] = system: Staphylococcus aureus; assay: Antibacterial activity against Staphylococcus aureus S125 incubated for 18 hrs by broth microdilution method; format: functional
[25] = system: Staphylococcus aureus; assay: Antibacterial activity against methicillin resistant Staphylococcus aureus 75 incubated for 18 hrs by broth microdilution method; format: functional
[26] = system: Staphylococcus aureus; assay: Antibacterial activity against Staphylococcus aureus incubated for 18 hrs by broth microdilution method; format: functional
[27] = system: Staphylococcus aureus; assay: Antibacterial activity against kanamycin resistant Staphylococcus aureus incubated for 18 hrs by broth microdilution method; format: functional
[28] = system: Staphylococcus aureus; assay: Antibacterial activity against rifampicin resistant Staphylococcus aureus incubated for 18 hrs by broth microdilution method; format: functional
[29] = system: Escherichia coli; assay: Antibacterial activity against Escherichia coli incubated for 18 hrs by broth microdilution method; format: functional
[30] = system: Escherichia coli; assay: Antibacterial activity against kanamycin resistant Escherichia coli incubated for 18 hrs by broth microdilution method; format: functional
[31] = system: Escherichia coli; assay: Antibacterial activity against rifampicin resistant Escherichia coli incubated for 18 hrs by broth microdilution method; format: functional

For POLYMYXIN B, the MHC [1] was over 512 µM, the LD50 [2] was 25.68 mg/kg and the Activity [3] was 0%. The Activity [4] was 60%, the Activity [5] was 80% and the Activity [6] was “Toxic”. The Activity [7] was “Toxic”, the Activity [8] was “Toxic” and the Activity [9] was “Toxic”. For the same molecule, the Activity [10] was “Toxic”, the Activity [11] was “Toxic” and the Activity [12] was “Toxic”.
For `CN[C@H](CC(C)C)C(=O)N[C@H]1C(=O)N[C@@H](CC(N)=O)C(=O)N[C@H]2C(=O)N[C@H]3C(=O)N[C@H](C(=O)N[C@H](C(=O)O)c4cc(O)cc(O)c4-c4cc3ccc4O)[C@H](O)c3ccc(c(Cl)c3)Oc3cc2cc(c3O[C@@H]2O[C@H](CO)[C@@H](O)[C@H](O)[C@H]2O[C@H]2C[C@](C)(N)[C@H](O)[C@H](C)O2)Oc2ccc(cc2Cl)[C@H]1O` [VANCOMYCIN], the Activity [13] was “Active”, the Activity [14] was “Active” and the Activity [15] was “Active”. For the same molecule, the Activity [16] was “Active”, the Activity [17] was “inactive” and the Activity [18] was “Toxic”. The Activity [19] was “Toxic”, the Activity [20] was “Toxic” and the MIC [21] was 0.5 µM (≈ 0.725 µg/mL). It also gave an MIC [22] of 0.5 µM (≈ 0.725 µg/mL), an MIC [23] of 64 µM (≈ 92.8 µg/mL) and an MIC [24] of 0.5 µM (≈ 0.725 µg/mL). It also gave an MIC [25] of 0.5 µM (≈ 0.725 µg/mL), an MIC [26] of 0.5 µM (≈ 0.725 µg/mL) and an MIC [27] of 0.5 µM (≈ 0.725 µg/mL). It also gave an MIC [28] of 128 µM (≈ 186 µg/mL), an MIC [29] of 64 µM (≈ 92.8 µg/mL) and an MIC [30] of 64 µM (≈ 92.8 µg/mL). For the same molecule, the MIC [31] was 128 µM (≈ 186 µg/mL).
